Data set [1] deals with T1, Glucagon-like peptide-1 receptor (GLP1R) (Homo sapiens, UniProt P43220).
T1 construct: expressed in transfected cells; host or cells: HEK293
In words: Agonist activity on GLP1R, cAMP response element luciferase reporter gene in HEK293 cells. Format: cell-based. As to conditions: HEK293 cells stably transfected with GLP1R and pCRE-Luc, 5 hours incubation; read-out: Maximum reaction rate. An excerpt: GLP1R is a receptor coupled with Gs protein, of which the binding with the agonists will result in an increase of intracellular cAMP concentration. In the present experiment, GLP1R and the luciferase reporter gene plasmid regulated by cAMP response elements are co-transfected into HEK293 cells. When the compound binds to the receptor and activates the receptors, the expression of the luciferase will increase. The activation status of the compound to GLP1R can be learned by testing the activity of the luciferase.
2. The compounds or positive drugs having a certain concentration gradient were added (3 wells per concentration) and incubated at 37° C. for 5 hours. The negative control was solvent DMSO.
3. 50 μl culture medium was taken from each well, and 50 μl of the luciferase substrate were added and vortexed for 10 minutes.
4. 80 μl reaction solution was taken and transferred to a white 96 well plate, then detected on the Invision microplate reader (enzyme-labelling measuring instrument).

The subject of data set [2] is db/db mice with type 2 diabetes. Kind of data set: Random blood glucose of db/db mice after single subcutaneous injection. The format is in vivo. As to conditions: for random blood glucose: n = 8; for decrease rate of random blood glucose: versus control group. As to the method: db/db mice with type 2 diabetes were divided into six groups based on a random blood glucose and body weight (8 per group). […] The random blood glucose of the mice is determined at differete time after administration.
Preparation method: 1 bottle of the compound (2 mg/bottle) was dissolved with double-distilled water to prepare a colorless and transparent solution of which the concentration is 2 mg/mL. […] “ACCU-CHEK® Advantage” blood glucose meter form Roche was used to determine the blood glucose.
Route and volume of administration: Single subcutaneous injection dose, dose volume was 5 mL/kg. […]
The random blood glucoses of db/db mice were measured.
Each group has 8 mice, half male and half female. The animals of each group were administered with the test compounds or solvent control respectively through single subcutaneous injection.

For data set [3] the following is noted: cited from earlier work.

Non-standard residues stand in square brackets, D forms with d. Residues, ends and D or L forms follow the SMILES beside them. *: point of attachment. εLys(Nα-Palmitoyl) = CCCCCCCCCCCCCCCC(=O)N[C@@H](CCCCN*)C(=O)O; Aib = CC(C)(N)C(=O)O

The values below come from patent publication US8614182B2 (Jiangsu Hansoh Pharmaceuticals Co., Ltd., priority 2009, dated 2013).

T1 sequence (P43220 24-463, species assumed): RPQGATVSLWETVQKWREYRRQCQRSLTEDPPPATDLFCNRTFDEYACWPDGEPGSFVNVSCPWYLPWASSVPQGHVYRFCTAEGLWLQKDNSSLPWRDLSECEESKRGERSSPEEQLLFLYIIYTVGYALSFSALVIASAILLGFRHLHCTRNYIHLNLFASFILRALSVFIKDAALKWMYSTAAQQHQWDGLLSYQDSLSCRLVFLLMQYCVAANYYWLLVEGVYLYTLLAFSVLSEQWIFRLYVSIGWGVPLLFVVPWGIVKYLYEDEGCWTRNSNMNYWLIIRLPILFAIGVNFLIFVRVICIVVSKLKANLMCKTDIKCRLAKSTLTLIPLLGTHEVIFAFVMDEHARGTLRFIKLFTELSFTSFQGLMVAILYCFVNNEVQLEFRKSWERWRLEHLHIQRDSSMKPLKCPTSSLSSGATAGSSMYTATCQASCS

Take `CCCCCCCCCCCCCCCC(=O)N[C@@H](CCCCNC(=O)[C@H](CO)NC(=O)[C@@H]1CCCN1C(=O)[C@@H]1CCCN1C(=O)[C@@H]1CCCN1C(=O)[C@H](C)NC(=O)CNC(=O)[C@H](CO)NC(=O)[C@H](CO)NC(=O)[C@@H]1CCCN1C(=O)CNC(=O)CNC(=O)[C@H](CCCNC(=N)N)NC(=O)[C@@H](NC(=O)[C@H](CC(C)C)NC(=O)[C@H](Cc1c[nH]c2ccccc12)NC(=O)[C@H](C)NC(=O)[C@@H](NC(=O)[C@H](Cc1ccccc1)NC(=O)[C@H](CCC(=O)O)NC(=O)[C@H](CCCCN)NC(=O)[C@H](C)NC(=O)[C@H](C)NC(=O)[C@H](CCC(=O)O)NC(=O)[C@H](CCC(=O)O)NC(=O)[C@H](CCC(=O)O)NC(=O)[C@H](CC(C)C)NC(=O)[C@H](Cc1ccc(O)cc1)NC(=O)[C@H](CO)NC(=O)[C@H](CO)NC(=O)[C@@H](NC(=O)[C@H](CC(=O)O)NC(=O)[C@H](CO)NC(=O)[C@@H](NC(=O)[C@H](Cc1ccccc1)NC(=O)[C@@H](NC(=O)CNC(=O)[C@H](CCC(=O)O)NC(=O)C(C)(C)NC(=O)[C@@H](N)Cc1c[nH]cn1)[C@@H](C)O)[C@@H](C)O)C(C)C)[C@@H](C)CC)C(C)C)C(=O)O` [HS-20004] (H-H[Aib]EGTFTSDVSSYLEEEAAKEFIAWLVRGGPSSGAPPPS-{εLys(Nα-Palmitoyl)}; N-terminus and C-terminus assumed): the Emax in data set [1] came out at 90.8%. Moreover, the random blood glucose in data set [2] (3 μg/kg single s.c., 1 h after administration, X ± s) was determined as 20.11 ± 1.28 mmol/L; in data set [2] (3 μg/kg single s.c., 2 h after administration, X ± s), 18.81 ± 1.50 mmol/L; in data set [2] (3 μg/kg single s.c., 4 h after administration, X ± s), 17.98 ± 1.38 mmol/L; in data set [2] (3 μg/kg single s.c., 8 h after administration, X ± s), 23.30 ± 1.47 mmol/L; in data set [2] (3 μg/kg single s.c., before administration, X ± s) it was 25.11 ± 1.63 mmol/L; in data set [2] (10 μg/kg single s.c., 1 h after administration, ± s) it was 19.63 ± 1.81 mmol/L. In addition, the random blood glucose in data set [2] (10 μg/kg single s.c., 2 h after administration, ± s) amounted to 21.86 ± 1.66 mmol/L; in data set [2] (10 μg/kg single s.c., 4 h after administration, ± s), 21.44 ± 1.68 mmol/L; in data set [2] (10 μg/kg single s.c., 8 h after administration, ± s), 23.80 ± 1.46 mmol/L; in data set [2] (10 μg/kg single s.c., 24 h after administration, ± s) it was 25.64 ± 1.85 mmol/L; in data set [2] (10 μg/kg single s.c., before administration, ± s) it was 23.18 ± 1.65 mmol/L. In addition, the “decrease rate of random blood glucose” value in data set [2] (3 μg/kg single s.c., 1 h after administration) is 15.00%; in data set [2] (3 μg/kg single s.c., 1 h after administration, listed as 20004), 15.00%; in data set [2] (3 μg/kg single s.c., 2 h after administration), 16.85%; in data set [2] (3 μg/kg single s.c., 4 h after administration) it was 18.30%; in data set [2] (3 μg/kg single s.c., 8 h after administration), 8.22%; in data set [2] (10 μg/kg single s.c., 1 h after administration), 36.20%. The “decrease rate of random blood glucose” value in data set [2] (10 μg/kg single s.c., 2 h after administration) was determined as 27.82%; in data set [2] (10 μg/kg single s.c., 4 h after administration) it was 28.30%; in data set [2] (10 μg/kg single s.c., 8 h after administration) it was 23.32%; in data set [2] (10 μg/kg single s.c., 24 h after administration) it was 11.52%. Also, the “random blood glucose values compared with those of the control group” value is “kept a lower level and had significant difference” in data set [2] (3 μg/kg single s.c., after 2 h and 4 h, P<0.05); “no significant difference” in data set [2] (3 μg/kg single s.c., after 8 hours); “decreased significantly” in data set [2] (3 μg/kg single s.c., after one hour, P<0.05); “still kept at a lower level” in data set [2] (10 μg/kg single s.c., after 4 h and 8 h); “not significantly different” in data set [2] (10 μg/kg single s.c., after 24 hours); “decreased immediately and significantly” in data set [2] (10 μg/kg single s.c., time not specified). Also, the “effect on reducing random blood glucose compared within the series” value in data set [2] (single s.c.) is given as “much better effect”. Besides, in data set [2] (single s.c., dose of 3 μg/kg (so in the source)), the “random blood glucose level (words, test conclusions)” value was “decreased obviously”.
Consider glucagon-like peptide-1 [GLP-1], for which, in data set [3], the in vivo half-life result is recorded as “about 2 minutes”.
